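Step 1: Grow cells in 96-well plates. Step 2: Expose to compound for 48 hours at 5 concentrations. Step 3: Interpolate endpoints linearly; if unreached, use highest concentration. Abbreviation: GI50, concentration required for 50% inhibition of growth. TGI: total growth inhibition.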
Key:
Test in all cases: NCI anticancer screen, dose series, 48 h
SF-268 CNS = tested on: SF-268 CNS
SK-OV-3 ovarian = tested on: SK-OV-3 ovarian
MDA-MB-435 = tested on: MDA-MB-435
SK-MEL-2 melanoma = tested on: SK-MEL-2 melanoma
MALME-3M melanoma = tested on: MALME-3M melanoma
UO-31 renal = tested on: UO-31 renal
HOP-62 NSCLC = tested on: HOP-62 NSCLC
RXF 393 renal = tested on: RXF 393 renal
HCT-15 colon = tested on: HCT-15 colon
A549 NSCLC = tested on: A549 NSCLC
HOP-92 NSCLC = tested on: HOP-92 NSCLC
UACC-257 melanoma = tested on: UACC-257 melanoma
T-47D breast = tested on: T-47D breast
NCI-H522 lung = tested on: NCI-H522 lung
NCI-H226 lung = tested on: NCI-H226 lung
ACHN renal = tested on: ACHN renal
IGROV1 ovarian = tested on: IGROV1 ovarian
SK-MEL-28 melanoma = tested on: SK-MEL-28 melanoma
SW-620 colon = tested on: SW-620 colon
HS 578T breast = tested on: HS 578T breast
U251 CNS = tested on: U251 CNS
EKVX NSCLC = tested on: EKVX NSCLC
OVCAR-5 ovarian = tested on: OVCAR-5 ovarian
786-0 renal = tested on: 786-0 renal
HCC-2998 colon = tested on: HCC-2998 colon
LOX IMVI melanoma = tested on: LOX IMVI melanoma
SF-539 CNS = tested on: SF-539 CNS
MCF7 breast = tested on: MCF7 breast
MOLT-4 leukemia = tested on: MOLT-4 leukemia
OVCAR-8 ovarian = tested on: OVCAR-8 ovarian
OVCAR-4 ovarian = tested on: OVCAR-4 ovarian
UACC-62 melanoma = tested on: UACC-62 melanoma
HL-60(TB) leukemia = tested on: HL-60(TB) leukemia
SF-295 CNS = tested on: SF-295 CNS
PC-3 prostate = tested on: PC-3 prostate
DU-145 prostate = tested on: DU-145 prostate
HT29 colon = tested on: HT29 colon
SR leukemia = tested on: SR leukemia
RPMI-8226 leukemia = tested on: RPMI-8226 leukemia
A498 renal = tested on: A498 renal
SNB-75 CNS = tested on: SNB-75 CNS
SK-MEL-5 melanoma = tested on: SK-MEL-5 melanoma
BT-549 breast = tested on: BT-549 breast
KM12 colon = tested on: KM12 colon
HCT-116 colon = tested on: HCT-116 colon
SNB-19 CNS = tested on: SNB-19 CNS
MDA-MB-231 breast = tested on: MDA-MB-231 breast
OVCAR-3 ovarian = tested on: OVCAR-3 ovarian
NCI/ADR-RES ovarian = tested on: NCI/ADR-RES ovarian
NCI-H23 lung = tested on: NCI-H23 lung
CAKI-1 renal = tested on: CAKI-1 renal
TK-10 renal = tested on: TK-10 renal
K-562 leukemia = tested on: K-562 leukemia
NCI-H460 lung = tested on: NCI-H460 lung
COLO 205 colon = tested on: COLO 205 colon
SN12C renal = tested on: SN12C renal
CCRF-CEM leukemia = tested on: CCRF-CEM leukemia

`O=C(CCCSc1nc(-c2ccc(Cl)cc2)cc(-c2ccc(Cl)cc2)n1)NO` was tested, and the GI50 (SF-268 CNS) was 1210 nM, the TGI (SF-268 CNS) was 7720 nM and the GI50 (SK-OV-3 ovarian) was 2020 nM. For the same compound, the TGI (SK-OV-3 ovarian) was 11800 nM, the GI50 (MDA-MB-435) was 2810 nM and the TGI (MDA-MB-435) was 17000 nM. The GI50 (SK-MEL-2 melanoma) was 4020 nM, the TGI (SK-MEL-2 melanoma) was 20400 nM and the GI50 (MALME-3M melanoma) was 2250 nM. It also gave a TGI (MALME-3M melanoma) of 11600 nM, a GI50 (UO-31 renal) of 320 nM and a TGI (UO-31 renal) of 2350 nM. It also gave a GI50 (HOP-62 NSCLC) of 618 nM, a TGI (HOP-62 NSCLC) of 11900 nM and a GI50 (RXF 393 renal) of 347 nM. The TGI (RXF 393 renal) was 1860 nM, the GI50 (HCT-15 colon) was 385 nM and the TGI (HCT-15 colon) was 11900 nM. For the same compound, the GI50 (A549 NSCLC) was 1590 nM, the TGI (A549 NSCLC) was 12400 nM and the GI50 (HOP-92 NSCLC) was 2510 nM. The TGI (HOP-92 NSCLC) was 11700 nM, the GI50 (UACC-257 melanoma) was 2920 nM and the TGI (UACC-257 melanoma) was 18200 nM. The GI50 (T-47D breast) was 1370 nM, the TGI (T-47D breast) was 16700 nM and the GI50 (NCI-H522 lung) was 1270 nM. The TGI (NCI-H522 lung) was 8110 nM, the GI50 (NCI-H226 lung) was 2170 nM and the TGI (NCI-H226 lung) was 11600 nM. It also gave a GI50 (ACHN renal) of 387 nM, a TGI (ACHN renal) of 10400 nM and a GI50 (IGROV1 ovarian) of 1150 nM. It also gave a TGI (IGROV1 ovarian) of 11200 nM, a GI50 (SK-MEL-28 melanoma) of 3150 nM and a TGI (SK-MEL-28 melanoma) of 17000 nM. It also gave a GI50 (SW-620 colon) of 838 nM, a TGI (SW-620 colon) of 11500 nM and a GI50 (HS 578T breast) of 4630 nM. For the same compound, the TGI (HS 578T breast) was 22800 nM, the GI50 (U251 CNS) was 693 nM and the TGI (U251 CNS) was 13000 nM. It also gave a GI50 (EKVX NSCLC) of 1140 nM, a TGI (EKVX NSCLC) of 12700 nM and a GI50 (OVCAR-5 ovarian) of 1420 nM. The TGI (OVCAR-5 ovarian) was 9010 nM, the GI50 (786-0 renal) was 971 nM and the TGI (786-0 renal) was 13100 nM. The GI50 (HCC-2998 colon) was 2780 nM, the TGI (HCC-2998 colon) was 10300 nM and the GI50 (LOX IMVI melanoma) was 222 nM. For the same compound, the TGI (LOX IMVI melanoma) was 1440 nM, the GI50 (SF-539 CNS) was 1260 nM and the TGI (SF-539 CNS) was 4930 nM. It also gave a GI50 (MCF7 breast) of 1230 nM, a TGI (MCF7 breast) of 12400 nM and a GI50 (MOLT-4 leukemia) of 760 nM. For the same compound, the TGI (MOLT-4 leukemia) was greater than 100000 nM, the GI50 (OVCAR-8 ovarian) was 558 nM and the TGI (OVCAR-8 ovarian) was 28600 nM. The GI50 (OVCAR-4 ovarian) was 603 nM, the TGI (OVCAR-4 ovarian) was 14100 nM and the GI50 (UACC-62 melanoma) was 946 nM. The TGI (UACC-62 melanoma) was 3100 nM, the GI50 (HL-60(TB) leukemia) was 1610 nM and the TGI (HL-60(TB) leukemia) was 8000 nM. For the same compound, the GI50 (SF-295 CNS) was 1170 nM, the TGI (SF-295 CNS) was 6900 nM and the GI50 (PC-3 prostate) was 1210 nM. For the same compound, the TGI (PC-3 prostate) was 16100 nM, the GI50 (DU-145 prostate) was 665 nM and the TGI (DU-145 prostate) was 8940 nM. For the same compound, the GI50 (HT29 colon) was 1140 nM, the TGI (HT29 colon) was 60000 nM and the GI50 (SR leukemia) was 339 nM. The TGI (SR leukemia) was 13000 nM, the GI50 (RPMI-8226 leukemia) was 1380 nM and the TGI (RPMI-8226 leukemia) was 36700 nM. It also gave a GI50 (A498 renal) of 1410 nM, a TGI (A498 renal) of 4260 nM and a GI50 (SNB-75 CNS) of 2100 nM. It also gave a TGI (SNB-75 CNS) of 12000 nM, a GI50 (SK-MEL-5 melanoma) of 1860 nM and a TGI (SK-MEL-5 melanoma) of 4060 nM. It also gave a GI50 (BT-549 breast) of 3210 nM, a TGI (BT-549 breast) of 18600 nM and a GI50 (KM12 colon) of 1960 nM. It also gave a TGI (KM12 colon) of 11300 nM, a GI50 (HCT-116 colon) of 532 nM and a TGI (HCT-116 colon) of 17000 nM. The GI50 (SNB-19 CNS) was 1920 nM, the TGI (SNB-19 CNS) was 13200 nM and the GI50 (MDA-MB-231 breast) was 1710 nM. For the same compound, the TGI (MDA-MB-231 breast) was 13200 nM, the GI50 (OVCAR-3 ovarian) was 413 nM and the TGI (OVCAR-3 ovarian) was 2140 nM. For the same compound, the GI50 (NCI/ADR-RES ovarian) was 310 nM, the TGI (NCI/ADR-RES ovarian) was 1900 nM and the GI50 (NCI-H23 lung) was 1630 nM. It also gave a TGI (NCI-H23 lung) of 10400 nM, a GI50 (CAKI-1 renal) of 334 nM and a TGI (CAKI-1 renal) of 10700 nM. For the same compound, the GI50 (TK-10 renal) was 853 nM, the TGI (TK-10 renal) was 17200 nM and the GI50 (K-562 leukemia) was 727 nM. For the same compound, the TGI (K-562 leukemia) was greater than 100000 nM, the GI50 (NCI-H460 lung) was 440 nM and the TGI (NCI-H460 lung) was 4110 nM. For the same compound, the GI50 (COLO 205 colon) was 2060 nM, the TGI (COLO 205 colon) was 6210 nM and the GI50 (SN12C renal) was 513 nM. The TGI (SN12C renal) was 7220 nM, the GI50 (CCRF-CEM leukemia) was 517 nM and the TGI (CCRF-CEM leukemia) was greater than 100000 nM.
